Assay results as given in patent US9562035B2, “Benzamide derivative useful as FASN inhibitors for the treatment of cancer” (Janssen Pharmaceutica NV, priority 2013, dated 2017).
Like-named read-outs stand apart in the source and are kept apart here.

Columns and labels:
[1] = biological target: T1, hFASN enzyme (full length) (Homo sapiens, UniProt P49327); assay: Fatty Acid Synthase (FASN) Inhibition Scintillation Proximity Assay; assay type: biochemical; details: for IC50: mean where tested more than once, ~ = standard error of pIC50 larger than 0.5; for inhibition at 10 µM: read-out: FASN % Effect @1E−05M
T1 construct: 10 μL hFASN enzyme (full length, 300 ng, purified in house); made in house
How it was run: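 Purified full-length human FASN (300 ng) incubated 60 min at room temperature with NADPH, [3H]-acetyl-CoA and malonyl-CoA in 100 mM KH2PO4 pH 7.5, 1 mM DTT; compound at 30 μM to 0.01 μM. [3H]-palmitate captured by SPA imaging beads; IC50 from 4-parameter fit, reported as pIC50.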

[2] = biological target: T2, FASN Keto-reductase Domain (Homo sapiens, UniProt P49327); assay: Fatty Acid Synthase Keto-Reductase Domain (FASN KR) Inhibition; assay type: biochemical; details: mean where tested more than once; read-out: FASN K-R Domain pIC50 (converted)
T2 construct: 10 μL hFASN enzyme (full length, 300 ng, purified in house) and 360 μM NADPH; made in house
How it was run: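 Full-length human FASN (300 ng) in 100 mM KH2PO4 pH 7.5 with 360 μM NADPH and 180 mM ethyl acetoacetate (stock); A340 decrease read over 20 min at room temperature.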

A2780 ovarian cells = assay: A2780 Ovarian Cell Proliferation Assay in Lipid Reduced Medium, without Palmitate; assay type: cell-based; details: Homo sapiens
How it was run: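 A2780 cells were seeded in 10% FCS medium and switched next day to 10% lipid-reduced serum without palmitate. Compounds at 0.01–30 μM were added with 0.2% DMSO, 0.2% fatty-acid-free BSA and 0.25% ethanol final. After 96 h, MTT absorbance at 544 nm was normalized to plate controls, and IC50/pIC50 came from a 4-parameter logistic fit.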

[3] = A2780, lipid reduced medium, without palmitate, 96 h, MTT, read-out: Proliferation A2780 w/o Palmitate pIC50 (converted)

T1 sequence (P49327 whole entry): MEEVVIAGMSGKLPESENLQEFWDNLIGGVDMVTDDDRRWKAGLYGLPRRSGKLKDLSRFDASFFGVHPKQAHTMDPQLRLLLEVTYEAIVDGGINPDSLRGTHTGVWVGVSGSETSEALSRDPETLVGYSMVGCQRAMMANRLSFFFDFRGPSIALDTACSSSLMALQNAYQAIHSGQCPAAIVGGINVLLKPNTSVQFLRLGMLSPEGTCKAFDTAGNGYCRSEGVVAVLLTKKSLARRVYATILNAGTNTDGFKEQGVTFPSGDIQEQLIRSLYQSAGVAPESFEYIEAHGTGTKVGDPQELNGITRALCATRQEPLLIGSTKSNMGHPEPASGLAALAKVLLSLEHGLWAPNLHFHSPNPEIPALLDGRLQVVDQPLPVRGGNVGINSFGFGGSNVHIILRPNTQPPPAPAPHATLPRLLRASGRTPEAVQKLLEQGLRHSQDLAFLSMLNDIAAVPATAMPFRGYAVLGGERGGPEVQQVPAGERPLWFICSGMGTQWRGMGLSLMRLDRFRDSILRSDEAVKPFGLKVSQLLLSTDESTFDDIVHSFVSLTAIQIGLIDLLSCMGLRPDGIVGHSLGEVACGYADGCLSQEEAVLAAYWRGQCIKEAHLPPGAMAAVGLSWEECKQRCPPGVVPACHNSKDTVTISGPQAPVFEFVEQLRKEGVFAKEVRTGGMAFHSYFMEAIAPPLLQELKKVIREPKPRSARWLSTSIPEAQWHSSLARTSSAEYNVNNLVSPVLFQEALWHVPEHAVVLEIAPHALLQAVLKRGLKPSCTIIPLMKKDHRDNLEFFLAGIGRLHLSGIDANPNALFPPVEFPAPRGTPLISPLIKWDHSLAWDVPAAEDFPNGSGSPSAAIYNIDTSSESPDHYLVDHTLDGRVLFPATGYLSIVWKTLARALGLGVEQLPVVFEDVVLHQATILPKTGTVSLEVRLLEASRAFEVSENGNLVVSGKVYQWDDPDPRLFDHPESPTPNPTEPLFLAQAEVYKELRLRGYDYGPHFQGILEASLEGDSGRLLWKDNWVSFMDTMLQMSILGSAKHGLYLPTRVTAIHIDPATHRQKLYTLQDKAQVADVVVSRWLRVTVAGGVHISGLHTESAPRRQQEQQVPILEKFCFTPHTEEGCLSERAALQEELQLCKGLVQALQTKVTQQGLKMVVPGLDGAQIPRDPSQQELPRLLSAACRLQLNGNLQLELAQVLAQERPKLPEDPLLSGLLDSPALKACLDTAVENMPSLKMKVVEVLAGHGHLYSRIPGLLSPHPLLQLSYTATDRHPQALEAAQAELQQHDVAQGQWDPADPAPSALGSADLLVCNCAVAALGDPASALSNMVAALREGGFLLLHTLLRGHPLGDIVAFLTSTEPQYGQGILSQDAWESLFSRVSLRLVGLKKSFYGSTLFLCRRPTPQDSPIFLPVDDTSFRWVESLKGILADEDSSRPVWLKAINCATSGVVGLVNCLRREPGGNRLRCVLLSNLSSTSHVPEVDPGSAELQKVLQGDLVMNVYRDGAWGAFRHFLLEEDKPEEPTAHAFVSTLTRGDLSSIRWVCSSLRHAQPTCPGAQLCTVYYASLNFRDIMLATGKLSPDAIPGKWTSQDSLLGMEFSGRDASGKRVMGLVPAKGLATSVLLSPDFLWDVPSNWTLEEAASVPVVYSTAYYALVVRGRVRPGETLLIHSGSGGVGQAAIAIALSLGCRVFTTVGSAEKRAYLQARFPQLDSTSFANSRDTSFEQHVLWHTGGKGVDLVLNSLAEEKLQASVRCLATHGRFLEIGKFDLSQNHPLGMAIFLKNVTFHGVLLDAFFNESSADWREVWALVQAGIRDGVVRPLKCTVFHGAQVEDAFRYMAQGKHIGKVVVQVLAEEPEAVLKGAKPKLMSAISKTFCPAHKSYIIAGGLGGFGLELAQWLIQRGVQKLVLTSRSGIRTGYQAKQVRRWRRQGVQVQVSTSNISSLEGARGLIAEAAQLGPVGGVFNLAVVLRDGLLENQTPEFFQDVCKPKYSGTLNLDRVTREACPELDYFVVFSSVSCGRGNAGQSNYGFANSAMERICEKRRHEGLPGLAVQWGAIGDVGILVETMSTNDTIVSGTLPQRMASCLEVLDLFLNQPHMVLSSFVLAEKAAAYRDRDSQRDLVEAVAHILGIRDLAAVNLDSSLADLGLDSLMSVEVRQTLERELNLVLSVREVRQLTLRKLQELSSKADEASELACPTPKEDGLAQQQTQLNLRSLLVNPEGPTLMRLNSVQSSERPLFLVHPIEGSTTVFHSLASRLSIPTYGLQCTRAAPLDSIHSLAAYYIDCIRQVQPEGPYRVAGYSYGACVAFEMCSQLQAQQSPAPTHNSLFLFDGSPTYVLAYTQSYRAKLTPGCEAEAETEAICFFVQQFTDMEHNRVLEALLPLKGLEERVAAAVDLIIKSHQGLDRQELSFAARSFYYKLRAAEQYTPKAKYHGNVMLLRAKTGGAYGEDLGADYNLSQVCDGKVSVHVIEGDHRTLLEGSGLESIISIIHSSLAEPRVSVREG
T2 sequence (P49327 whole entry, the tested form may be a part): as the sequence (P49327 whole entry) above

SMILES	IC50 [1] [nM]	inhibition at 10 µM [1] [%]	IC50 [2] [nM]	IC50 (A2780 ovarian cells; [3]) [µM]	IC50 (A2780 ovarian cells; A2780, 96 h, read-out: Proliferation A2780 w/o Palmitate pIC50 (μM) (converted)) [µM]
CC(C)Nc1ccc(C(=O)Nc2cc(C(=O)N3CCC(c4ccc(-c5cnn(C)c5)cc4)CC3)ccc2N)cn1 [Compound 285, N-(2-amino-5-(4-(4-(1-methyl-1H-pyrazol-4-yl)phenyl)piperidine-1-carbonyl)phenyl)-6-(isopropylamino)nicotinamide]	~166	74	214	0.0589	
CNc1ccc(C(=O)N2CCC(c3ccc(-c4cnn(C)c4)cc3)CC2)cc1NC(=O)c1ccc(NC(C)C)nc1 [Compound #279, 6-(isopropylamino)-N-(5-(4-(4-(1-methyl-1H-pyrazol-4-yl)phenyl)piperidine-1-carbonyl)-2-(methylamino)phenyl)nicotinamide]	41.7	98	93.3	0.0417	
CN(C)c1ccc(C(=O)N2CCC(c3ccc(-c4cnn(C)c4)cc3)CC2)cc1NC(=O)c1ccc(Cl)nc1 [Compound 275, 6-chloro-N-(2-(dimethylamino)-5-(4-(4-(1-methyl-1H-pyrazol-4-yl)phenyl)piperidine-1-carbonyl)phenyl)nicotinamide]	56.2	99	126	0.1	
Cc1ccc(C(=O)N2CC(c3ccc(-c4cnn(C)c4)cc3)C2)cc1NC(=O)c1ccc(N2CCOCC2)nc1 [Compound #66, N-(2-methyl-5-(3-(4-(1-methyl-1H-pyrazol-4-yl)phenyl)azetidine-1-carbonyl)phenyl)-6-morpholinonicotinamide]	9.55	118	31.6	~0.0229	
CN(c1ccc(C(=O)N2CCC(c3ccc(-c4cnn(C)c4)cc3)CC2)cc1NC(=O)C1CC1)C1CC1 [Compound 288, N-(2-(cyclopropyl(methyl)amino)-5-(4-(4-(1-methyl-1H-pyrazol-4-yl)phenyl)piperidine-1-carbonyl)phenyl)cyclopropanecarboxamide]	871	88	2510	5.13	
CC(C)Nc1ccc(C(=O)Nc2cc(C(=O)N3CCC(c4ccc(-c5cnn(C)c5)cc4)CC3)ccc2NC2CC2)cn1 [Compound 283, N-(2-(cyclopropylamino)-5-(4-(4-(1-methyl-1H-pyrazol-4-yl)phenyl)piperidine-1-carbonyl)phenyl)-6-(isopropylamino)nicotinamide]	110	98	631	0.363	
COCCN(C)c1ccc(C(=O)N2CCC(c3ccc(-c4cnn(C)c4)cc3)CC2)cc1NC(=O)c1ccc(NC(C)C)nc1 [Compound 281, 6-(isopropylamino)-N-(2((2-methoxyethyl)(methyl)amino)-5-(4-(4-(1-methyl-1H-pyrazol-4-yl)phenyl)piperidine-1-carbonyl)phenyl)nicotinamide]	457	93	933	0.417	
Cc1ccc(C(=O)N2CCC(c3ccc(-c4cnn(C)c4)cc3)CC2)cc1NC(=O)c1ccc(NC(C)C)nc1 [Compound #32, 6-(isopropylamino)-N-(2-methyl-5-(4-(4-(1-methyl-1H-pyrazol-4-yl)phenyl)piperidine-1-carbonyl)phenyl)nicotinamide]	26.9	104	37.2		0.0135
CC(C)Nc1ccc(C(=O)Nc2cc(C(=O)N3CCC(c4ccc(-c5cnn(C)c5)cc4)CC3)ccc2N(C)C)cn1 [Compound 280, N-(2-(dimethylamino)-5-(4-(4-(1-methyl-1H-pyrazol-4-yl)phenyl)piperidine-1-carbonyl)phenyl)-6-(isopropylamino)nicotinamide]	70.8	99	148	0.0776	
Cc1ccc(C(=O)N2CC(c3ccc(-c4cnn(C)c4)cc3)C2)cc1NC(=O)c1ccc(N(C)C(C)C)nc1 [Compound #78, 6-(isopropyl(methyl)amino)-N-(2-methyl-5-(3-(4-(1-methyl-1H-pyrazol-4-yl)phenyl)azetidine-1-carbonyl)phenyl)nicotinamide]	~10.2	120	25.1	~0.0295	
CC(C)Nc1ccc(C(=O)Nc2cc(C(=O)N3CCC(c4ccc(-c5cnn(C)c5)cc4)CC3)ccc2NC(C)C)cn1 [Compound 284, 6-(isopropylamino)-N-(2-(isopropylamino)-5-(4-(4-(1-methyl-1H-pyrazol-4-yl)phenyl)piperidine-1-carbonyl)phenyl)nicotinamide]	126	95	407	~0.316	
CC(C)N(C)c1ccc(C(=O)N2CCC(c3ccc(-c4cnn(C)c4)cc3)CC2)cc1NC(=O)c1ccc(Cl)nc1 [Compound 274, 6-chloro-N-(2-(isopropyl(methyl)amino)-5-(4-(4-(1-methyl-1H-pyrazol-4-yl)phenyl)piperidine-1-carbonyl)phenyl)nicotinamide]	437	88	~2190	~0.302	
CC(C)Nc1ccc(C(=O)Nc2cc(C(=O)N3CCC(c4ccc(-c5cnn(C)c5)cc4)CC3)ccc2N(C)C(C)C)cn1 [Compound 276, N-(2-(isopropyl(methyl)amino)-5-(4-(4-(1-methyl-1H-pyrazol-4-yl)phenyl)piperidine-1-carbonyl)phenyl)-6-(isopropylamino)nicotinamide]	372	93	479	~0.257	
CC(C)Nc1ccc(C(=O)Nc2cc(C(=O)N3CCC(c4ccc(-c5cnn(C)c5)cc4)CC3)ccc2N(C)C2CC2)cn1 [Compound 287, N-(2-(cyclopropyl(methyl)amino)-5-(4-(4-(1-methyl-1H-pyrazol-4-yl)phenyl)piperidine-1-carbonyl)phenyl)-6-(isopropylamino)nicotinamide]	100	98	204	0.676	
COCCNc1ccc(C(=O)N2CCC(c3ccc(-c4cnn(C)c4)cc3)CC2)cc1NC(=O)C1CC1 [Compound 286, N-(2-((2-methoxyethyl)amino)-5-(4-(4-(1-methyl-1H-pyrazol-4-yl)phenyl)piperidine-1-carbonyl)phenyl)cyclopropanecarboxamide]	513	91	851	0.427	
COCCNc1ccc(C(=O)N2CCC(c3ccc(-c4cnn(C)c4)cc3)CC2)cc1NC(=O)c1ccc(NC(C)C)nc1 [Compound 282, 6-(isopropylamino)-N-(2-((2-methoxyethyl)amino)-5-(4-(4-(1-methyl-1H-Pyrazol-4-yl)phenyl)piperidine-1-carbonyl)phenyl)nicotinamide]	70.8	99	457	0.209	
COCCN(C)c1ccc(C(=O)N2CCC(c3ccc(-c4cnn(C)c4)cc3)CC2)cc1NC(=O)C1CC1 [Compound 278, N-(2-((2-methoxyethyl)(methyl)amino)-5-(4-(4-(1-methyl-1H-pyrazol-4-yl)phenyl)piperidine-1-carbonyl)phenyl)cyclopropanecarboxamide]	813	85	1100	1.78	
